Assay results published in US20240358705A1, “COMPOSITIONS AND METHODS FOR TREATMENT OF CANCER” (Board of Supervisors of Louisiana State University and …, priority 2021, published 2024).
“Also recorded” adds a separate entry of the source. {AltR1} = IDT Alt-R proprietary 5' end modification; {AltR2} = IDT Alt-R proprietary 3' end modification

Experiments:
[1] = tested on: pmel-I CD8 T cells; assay: Cytotoxicity of CRISPR-Cas9 GPR84 knockout pmel-I CD8 T cells; assay type: cell-based, mouse
Procedure: CRISPR-Cas9 GPR84 pmel-I T cells were prepared following the CRISPR-Cas9 method. Non-target EL4 cells (CFSE low—0.1 μM) and target EL4gp100 cells (CFSE high—[…]) were prepared. EL4gp100 CFSE high cells were prepared by pulsing EL4 with […] gp100 (Anaspec #AS62589) and incubating for 30 minutes at 37° C., 5% C02. Cells were subsequently washed, pelleted, resuspended at 1×10^6 cells/ml, and mixed at 1:1 ratio. 1×10^5 of the mixed cells were plated into a 96-well round-bottom plate. In technical duplicate or triplicate GPR84 knockout or no target control CD8 […] T cells were added to wells to create an effector to target ratio of 0.5:1, 0.25:1, and 0.12:1 and incubated for 24 hours at 37° C., 5% C02. Cells were then harvested, stained with anti-CD8 to remove the T cell population and the percent specific lysis was captured by flow cytometry.
Isolated pmel-I splenocytes were plated at a density of 2.5×10^6 in 1 ml of cRPMI-1640 containing 300 ng/ml anti-mouse CD3 (Biolegend #100340, clone 145-2C11), 500 IU/ml IL-2, 5 ng/ml IL-7 (PreproTech #217-17), and 100 ng/ml IL-15 (PreproTech #210-15) into a 24-well plate. Cells were incubated at 37° C., 5% CO2 for 48 hours. Cells were then pelleted and suspended to a concentration of 4×10^5 cells/ml in fresh cRPMI-1640 with 500 IU/ml IL-2 and cultured for an additional 24 hours at 37° C., 5% CO2. Before electroporation, T media was prepared consisting of modified cRPMI-1640 (20% FBS, 500 IU/ml IL-2, and no antibiotics). 615 μl of fresh T media was pipetted into 24-well plates. Preparation of CRISPR-Cas9 complexes and electroporation of primary T cells were conducted following the Alt-R CRISPR-Cas9 system using the Neon Transfection System instructions provided by Integrated DNA Technologies (IDT Coralville, IO). The program used for electroporation consisted of 1600V, 10 ms, and three pulses. […] Cells were counted 48 hours after electroporation and cRPMI-1640 supplemented with 500 IU/ml IL-2 was added to adjust the cell density to 4×10^5 cells/ml. […]

[2] = tested on: CD8 OT-I T cells; assay: In vivo vaccination antigen titration; parameters: species or system mouse; OT-I proliferation response, lymph node: dose or concentration left out as unconfirmed
Procedure: C57BL/6N mice were first administered 200 μg cyclophosphamide dissolved in PBS by intraperitoneal injection to induce minor lymphodepletion. 48 hours after lymphodepletion, mice were intravenously adoptively transferred 2×10^6 CFSE labeled CD8 OT-I T cells. Five hours later, mice were vaccinated by 100 μl subcutaneous injection with reducing doses of […] (SEQ ID NO: 1) (Bachem #4033142.0001) in incomplete Freund's adjuvant (IFA) (Thermo #77145). Study ended 96 hours post-vaccination and lymph node tissue was isolated for analysis. Single-cell suspensions of lymph node were stained following the immune profiling by flow cytometry method. Vaccine effectiveness was determined by the percent proliferation of adoptively transferred cells. The sub-optimal vaccine dose was then selected as the amount of antigen that elicited a 50% response.

[3] = cited from earlier work
[4] = phase II study; cited from earlier work
[5] = tested on: macrophages, fibroblasts, myofibroblasts, and epithelial cells; details: cited from earlier work
[6] = model of diet-induced obesity; cited from earlier work
[7] = tested on: human polymorphonuclear leukocytes and macrophages; details: cited from earlier work

Compound: crGPR84: CRISPR-Cas9 guide RNA (SEQ ID NO: 2) used to knock out GPR84 in pmel-I CD8 T cells (guide CUCGAGCACUGGACCAAUACGUUUUAGAGCUAUGCU; RNA, 5' {AltR1}, 3' {AltR2}, backbone not given here)
- specific lysis of gp100 pulsed EL4 target cells ([1]; 0.12:1 effector to target ratio, crNTC 38.6%): 52.3%
- specific lysis of gp100 pulsed EL4 target cells ([1]; 0.25:1 effector to target ratio, no target control 55.9%): 72.5%
- cytotoxicity vs no target control ([1]; 0.5:1 effector to target ratio): did not find a significant difference

Compound: SIINFEKL
- OT-I proliferation response, predicted ([2]; 0.07 g SIINFEKL, selected sub-optimal vaccine dose): 50%
- OT-I proliferation, lymph node ([2]; first five concentrations of SIINFEKL in IFA, 96 hours): ~100%
- OT-I proliferation response, lymph node ([2]; in IFA): below 50%

Compound: CCCCCc1cccc(CC(=O)O)c1 [PBI-4050]
- forced vital capacity ([3]; combination therapy with pirfenidone): worsened forced vital capacity
- inflammatory and fibrotic biomarkers ([3]; patients treated with PBI-4050): significant increase in IL-9, IL-7, MIP-Ibeta; also recorded: increase in IL-9, IL-7, MIP-1beta
- tolerability ([3]; single agent and in combination with nintedanib or pirfenidone, phase II): well tolerated
- ability to increase forced vital capacity ([3]; single agent and in combination with nintedanib): unsuccessful
- HbA1c [4]: can reduce HbAlc
- fibrotic capacity of cells [5]: reduced fibrotic capacity
- glycemic control [5]: improved glycemic control

Compound: CCCCCc1cc(CCCCC)cc(CC(=O)O)c1 [PBI-4547]
- metabolic dysregulation (hyperglycemia and hypertriglyceridemia) [6]: improved metabolic dysregulation

Compound: CCCCCCCCNc1cc(=O)[nH]c(=O)[nH]1 [6-OAU]
- chemotaxis [7]: increase chemotaxis
